Test results published in US6716613B1, “Metalloprotease having aggrecanase activity” (Yamanouchi Pharmaceutical Co., Ltd., priority 1999, dated 2004).

Legend:
[1] = target: T1, MDTS6Cys (Homo sapiens, UniProt Q8TE58); assay: ELISA screening system for aggrecanase activity inhibition (anti-aggrecanase neoepitope antibody); assay type: biochemical; conditions: MDTS6Cys culture supernatant, recombinant aggrecan G1G2 substrate, 37° C. for several hours; read-out: aggrecanase activity inhibition strength (IC50)
T1 construct: made in house; host or cells: HEK293-EBNA cells; unpurified culture supernatant used as enzyme source
T1 sequence (Q8TE58 213-687): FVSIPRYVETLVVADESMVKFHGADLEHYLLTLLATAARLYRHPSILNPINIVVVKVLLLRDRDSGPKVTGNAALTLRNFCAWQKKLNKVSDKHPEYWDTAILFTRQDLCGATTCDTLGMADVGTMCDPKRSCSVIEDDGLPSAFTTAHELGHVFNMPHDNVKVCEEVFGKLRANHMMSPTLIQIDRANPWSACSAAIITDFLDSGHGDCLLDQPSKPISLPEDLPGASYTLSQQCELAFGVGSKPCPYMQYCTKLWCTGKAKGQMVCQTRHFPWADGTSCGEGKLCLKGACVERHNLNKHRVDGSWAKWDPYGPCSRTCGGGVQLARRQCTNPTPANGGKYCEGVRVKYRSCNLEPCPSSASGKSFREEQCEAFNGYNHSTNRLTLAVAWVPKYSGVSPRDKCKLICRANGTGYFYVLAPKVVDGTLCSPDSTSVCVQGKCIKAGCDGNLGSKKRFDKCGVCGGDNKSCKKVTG
Method: The criterion to screen a substance which inhibits the aggrecanase activity is preferably 10 μM or less, more preferably 1.0 μM or less, as inhibition activity strength (IC50)

[2] = tested on: rabbit knee joint cartilage primary culture cells; assay: Proteoglycan degradation/release in rabbit knee joint cartilage primary culture cells (35S label); assay type: cell-based
Method: After killing a rabbit (Japanese white species, male, 1.0 to 1.5 kg) under excess anesthesia, a knee joint was excised and the cartilage layer on the joint surface was removed and finely cut using a surgical knife. The cut pieces were treated with trypsin-EDTA (0.25%-1 mM; mfd. by GIBCO-BRL) at 37° C. for 1 hour and then centrifuged at 1,500 rpm for 5 minutes, and the resulting precipitate was washed with DMEM. This was treated with collagenase A (0.15%; Boehringer-Mannheim)/DMEM at 37° C. for 3 to 4 hours, and then a nylon mesh filter (100 μm, mfd. by Falcon)-passed fraction was centrifuged at 1,500 rpm for 5 minutes to effect precipitation of cartilage cells. The cells were thoroughly washed with DMEM/10% FBS medium, suspended in DMEM/10% FBS medium to a density of 2×10^5 cells/ml and then inoculated in 200 μl/well portions into an I type collagen-coated 96 well plate (mfd. by Asahi Technoglass). Three days thereafter, the medium was changed to 200 μof DMEM/10% FBS medium containing 50 μg/ml of ascorbic acid (ascorbic acid medium hereinafter), and the culturing was continued for 3 days. When an I type collagen-coated 6 well plate (Asahi Technoglass) was used, the cell suspension was inoculated in 6 ml/well portions and cultured by carrying out the same medium exchange. These cells were used in the following test.
The rabbit knee joint cartilage primary culture cells of 96 well plate described in Example 11-1 were cultured for 2 days using 200 μl of the ascorbic acid medium supplemented with 10 μCi/ml in final concentration of Na2^35SO4 and labeled therewith, washed 3 times with 200 μl of the ascorbic acid medium and then cultured for 1 day using 200 μl of the ascorbic acid medium. After stimulation with IL-1β or all-trans retinoic acid and subsequent 0, 24, and 48 hours of culturing, the culture supernatants were recovered in 20 μl portions, and the radioactivity was measured using Top Count (mfd. by Packard).
Each of the compounds A, B, C and D selected by the screening system of Example 10-2 was added to the proteoglycan degradation system of rabbit knee joint cartilage primary culture cells just before the stimulation with 10 μM of all-trans retinoic acid, and their proteoglycan degradation inhibitory activities were examined.

[3] = tested on: MDTS6 mRNA; assay: Induction of MDTS6 mRNA expression in rabbit knee joint cartilage primary culture cells (RT-PCR); assay type: cell-based; conditions: 10 ng/ml of IL-1β or 10 μM of all-trans retinoic acid; 2 and 6 hours
Method: After 3 days of culturing of the rabbit knee joint cartilage primary culture cells of 6 well plate described in Example 11-1 by changing the medium to ascorbic acid medium, 10 ng/ml of IL-1β or 10 μM of all-trans retinoic acid was added thereto, and total RNA samples 2 and 6 hours thereafter were prepared using ISOGEN (mfd. by Nippon Gene) in accordance with the attached instructions. Each of the samples was treated with DNase I (mfd. by Nippon Gene), subjected to phenol/chloroform treatment and then recovered by ethanol precipitation, and the thus purified total RNA was dissolved in DEPC-treated sterile water. Using random hexamers as primers, 1 μg of this total RNA was subjected to reverse transcription reaction and RNase H treatment using Thermoscript™ RT-PCR System (mfd. by GIBCO-BRL, catalog number 11146-016) in accordance with the attached instructions, and the product was diluted 10 times with sterile water and used as a cDNA sample. Using 5 μl of each of the thus obtained cDNA samples as the template and the oligoDNA sequences represented by SEQ ID NO:18 and SEQ ID NO:19 as primers, PCR was carried out under a condition of 94° C. for 2 minutes, 45 repetitions of a cycle of 94° C. for 30 seconds, 65° C. for 30 seconds and 72° C. for 30 seconds, and subsequent 72° C. for 10 minutes. […]

[4] = tested on: MDTS6 mRNA; assay: Expression induction of MDTS6 mRNA in ATDC5 cells (RT-PCR); assay type: cell-based, mouse; conditions: insulin-differentiated, IL-1β 5 ng/ml for 0, 1, 2, 4 or 8 hours
Method: It is known that a mouse cell strain ATDC5 is differentiated into a chondrocyte-like cell by insulin treatment (Atsumi T. et al., Cell Differ. Dev., 30, 109-116, 1990). The ATDC5 cells were inoculated in 4×10^5/well portions into an I type collagen-coated 6 well plate (mfd. by Asahi Technoglass) and cultured for 2 days using DMEM/HamF12 (1:1)/5% FCS medium, the medium was changed to DMEM/HamF12 (1:1)/5% FCS medium containing insulin (final concentration 30 ng/ml) and 50 μg/ml of L-ascorbic acid and the culturing was continued for 5 days, and then the resulting cells were treated for 0, 1, 2, 4 or 8 hours by adding IL-1β (final concentration 5 ng/ml). Total RNA was prepared from each of the treated groups using ISOGEN (mfd. by Nippon Gene), and RT-PCR was carried out using 1 μg portion thereof as the template and using BcaBEST™ RNA PCR Kit (mfd. by Takara Shuzo). The reverse transcription reaction was carried out using Oligo dT-Adaptor Primer as the primer in accordance with the attached instructions, and PCR was carried out using oligoDNA sequences represented by SEQ ID NO:15 and SEQ ID NO:16 as primers, which had been synthesized based on the 3′ non-translation region of MDTS6, by the reaction of 94° C. for 2 minutes, 40 repetitions of a cycle of 94° C. for 30 seconds, 60° C. for 30 seconds and 72° C. for 30 seconds, and subsequent 72° C. for 7 minutes. […]

IC50 [1] | Compound | inhibition of proteoglycan degradation (in words, FIG. 8) ([2]; compound added just before stimulation with 10 μM of all-trans retinoic acid) | release of proteoglycan (increase in radioactivity of culture supernatant) ([2]; stimulation with 0.01 to 10 ng/ml IL-1β or 0.1 to 10 μM all-trans retinoic acid, 0, 24, 48 hours of culturing) | expression of the MDTS6 mRNA [3] | expression of the MDTS6 mRNA [4]
1000 nM | CNC(=O)[C@H](Cc1ccccc1)NC(=O)C(CC(C)C)C(CS)C(=O)NO (stereo partly drawn) [compound B, N^α-[2-(1-hydroxycarbamoyl-2-sulfanylethyl)-4-methylpentanoyl]-N-methylphenylalanineamide] | inhibition of proteoglycan degradation in a concentration-dependent manner | – | – | –
– | IL-1β: cytokine used to stimulate proteoglycan release and MDTS6 mRNA expression | – | increase in the radioactivity, namely release of proteoglycan, was observed | induced | transiently induced
